Measured values as given in patent publication US10196363B2, “Dihydropyrimidin-2-one compounds and medical use thereof” (JAPAN TOBACCO INC., priority 2014, dated 2019).

Tests used:
human RORγ = molecular target: T1, human RORγ (Homo sapiens, UniProt P51449); test: In vitro assay of inhibitory effect against RORγ transcriptional activity (GAL4-hRORγ LBD luciferase reporter gene assay in CHO cells); assay type: cell-based; conditions: for EC50: GAL4-hRORγ LBD luciferase reporter, CHO cells, read-out: LUC EC50 hRORγ; for hRORγ luciferase activity, %-of-control: value in parentheses beside the EC50 bound, vehicle-control 0.2% DMSO alone = 100%
T1 construct: human RORγ, from Ser253 to Lys518; expressed in transfected cells; host or cells: CHO cells (Chinese hamster ovary), transient co-transfection with pG5-Luc
T1 sequence (P51449 253-518): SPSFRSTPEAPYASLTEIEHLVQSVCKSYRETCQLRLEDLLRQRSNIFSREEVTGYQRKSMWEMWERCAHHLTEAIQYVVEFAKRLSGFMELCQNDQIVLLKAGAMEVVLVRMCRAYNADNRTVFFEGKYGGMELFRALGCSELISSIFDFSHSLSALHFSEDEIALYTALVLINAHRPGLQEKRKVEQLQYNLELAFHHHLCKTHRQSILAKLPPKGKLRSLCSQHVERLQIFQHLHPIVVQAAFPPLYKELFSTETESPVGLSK
Procedure, shortened: (§1)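 GAL4-DBD fused to RORγ LBD (human Ser253–Lys518; mouse Ile251–Lys516) was transiently co-transfected with GAL4-driven pG5-Luc firefly luciferase into CHO cells. Cells were treated with 8 concentrations of compound (0.2% DMSO) for 2 days at 37 °C, then luminescence was read. EC50 was fitted from %-of-vehicle control.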

mouse RORγ = molecular target: T2, mouse RORγ (Mus musculus, UniProt P51450); test: In vitro assay of inhibitory effect against RORγ transcriptional activity (GAL4-mRORγ LBD luciferase reporter gene assay in CHO cells); assay type: cell-based; conditions: for EC50: GAL4-mRORγ LBD luciferase reporter, CHO cells, read-out: LUC EC50 mRORγ; for mRORγ luciferase activity, %-of-control: value in parentheses beside the EC50 bound, vehicle-control 0.2% DMSO alone = 100%
T2 construct: mouse RORγ, from Ile251 to Lys516; expressed in transfected cells; host or cells: CHO cells (Chinese hamster ovary), transient co-transfection with pG5-Luc
T2 sequence (P51450 251-516): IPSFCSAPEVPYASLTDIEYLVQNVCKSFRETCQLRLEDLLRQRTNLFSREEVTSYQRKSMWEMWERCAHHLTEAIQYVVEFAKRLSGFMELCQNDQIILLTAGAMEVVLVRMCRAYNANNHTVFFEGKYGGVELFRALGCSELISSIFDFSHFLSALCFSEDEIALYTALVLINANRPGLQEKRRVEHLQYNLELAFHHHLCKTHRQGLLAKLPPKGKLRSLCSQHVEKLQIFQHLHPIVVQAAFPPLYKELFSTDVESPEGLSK
Procedure, shortened: as §1

| EC50 (human RORγ) | EC50 (mouse RORγ) | hRORγ luciferase activity, %-of-control (human RORγ) | mRORγ luciferase activity, %-of-control (mouse RORγ) | SMILES |
| --- | --- | --- | --- | --- |
| 281 nM | 427 nM | – | – | CC(C)(C)CCc1ccc([C@]2(C)NC(=O)N([C@H]3C[C@H](C(=O)O)C3)C=C2[C@H]2C[C@@H](CO)C2)cc1Cl [Example 205] |
| 81 nM | 117 nM | – | – | COC[C@H]1C[C@@H](C2=CN(CCC(=O)O)C(=O)N[C@@]2(C)c2ccc(CCC(C)(C)C)c(Cl)c2)C1 [Example 206] |
| 21 nM | 40 nM | – | – | CC(C)C1=CN(c2ccc(F)c(C(=O)O)c2)C(=O)N[C@@]1(C)c1ccc(CCC(C)(C)C)c(Cl)c1 [Example 208] |
| 6 nM | 7 nM | – | – | COCCC1=CN(c2ccc(C(=O)O)cc2)C(=O)N[C@@]1(C)c1ccc(CCC(C)(C)C)c(Cl)c1 [Example 210] |
| > 20000 nM | > 20000 nM | (88%) | (86%) | CC(C)CS(=O)(=O)c1ccc([C@]2(C)NC(=O)N(CCC(=O)O)C=C2C(C)C)cc1Cl [Example 219] |
| 101 nM | 72 nM | – | – | COCCN1C=C(c2ccc(C(=O)O)cc2)[C@](C)(c2ccc(CCC(C)(C)C)c(Cl)c2)NC1=O [Example 225] |
| 17 nM | 20 nM | – | – | COc1cc(N2C=C(C(C)C)[C@](C)(c3ccc(CCC(C)(C)C)c(Cl)c3)NC2=O)ccc1C(=O)O [Example 226, 4-{(S)-4-[3-Chloro-4-(3,3-dimethyl-butyl)-phenyl]-5-isopropyl-4-methyl-2-oxo-3,4-dihydro-2H-pyrimidin-1-yl}-2-methoxy-benzoic Acid] |
| > 20000 nM | > 20000 nM | (89%) | (87%) | CC(C)C1=CN(CCC(=O)O)C(=O)N[C@@]1(C)c1ccc(S(=O)(=O)C2CCCC2)c(Cl)c1 [Example 227] |
| 32 nM | 32 nM | – | – | CC(C)C1=CN(C2(CC(=O)O)CC2)C(=O)N[C@@]1(C)c1ccc(CCC(C)(C)C)c(Cl)c1 [Example 228] |
| 225 nM | 76 nM | – | – | CC(C)N1C=C(CCC(=O)O)[C@](C)(c2ccc(CCC(C)(C)C)c(Cl)c2)NC1=O [Example 230] |
| > 3200 nM | 1610 nM | (70%) | – | CC(C)C1=CN([C@@H]2CCCC[C@H]2C(=O)O)C(=O)N[C@@]1(C)c1ccc(CCC(C)(C)C)c(Cl)c1 [Example 235] |
| 10 nM | 21 nM | – | – | CC(C)(C)CCc1ccc([C@]2(C)NC(=O)N(CC3CC(F)(F)C3)C=C2[C@H]2C[C@@H](C(=O)O)C2)cc1Cl [Example 248] |
| 22 nM | 16 nM | – | – | CC(C)C1=CN(CCC(=O)O)C(=O)N[C@@]1(C)c1ccc([C@H]2C[C@@H](C(C)C)C2)c(Cl)c1 [Example 258, 3-{(S)-4-[3-Chloro-4-(3-isopropyl-cyclobutyl)-phenyl]-5-isopropyl-4-methyl-2-oxo-3,4-dihydro-2H-pyrimidin-1-yl}-propionic Acid] |
| 15 nM | 14 nM | – | – | CC(C)C1=CN(CCC(=O)O)C(=O)N[C@@]1(C)c1ccc(CC2CCCCC2)c(Cl)c1 [Example 268] |
| 19 nM | 23 nM | – | – | CC(C)C1=CN(C23CCC(C(=O)O)(CC2)C3)C(=O)N[C@@]1(C)c1ccc(CCC(C)(C)C)c(Cl)c1 [Example 269] |

Further lines, the compound ahead of its results:

| SMILES | EC50 (human RORγ) | EC50 (mouse RORγ) | hRORγ luciferase activity, %-of-control (human RORγ) | mRORγ luciferase activity, %-of-control (mouse RORγ) |
| --- | --- | --- | --- | --- |
| CC(C)C1=CN(c2ccc(C(=O)O)cc2F)C(=O)N[C@@]1(C)c1ccc(CCC(C)(C)C)c(Cl)c1 [Example 207] | 9 nM | 18 nM | – | – |
| COCCC(C)(C)CC1=CN(c2ccc(C(=O)O)cc2)C(=O)N[C@@]1(C)c1ccc(CCC(C)(C)C)c(Cl)c1 [Example 209] | 51 nM | 74 nM | – | – |
| COCCC1=CN(CCC(=O)O)C(=O)N[C@@]1(C)c1ccc(CCC(C)(C)C)c(Cl)c1 [Example 211] | 11 nM | 8 nM | – | – |
| COc1cc([C@@]2(C)NC(=O)N(CCC(=O)O)C=C2C(C)C)ccc1CCC(C)(C)C [Example 212] | > 8000 nM | > 8000 nM | (68%) | (81%) |
| COc1cc([C@]2(C)NC(=O)N(CCC(=O)O)C=C2C(C)C)ccc1CCC(C)(C)C [Example 213] | 131 nM | 56 nM | – | – |
| CC(C)CSc1ccc([C@]2(C)NC(=O)N(CCC(=O)O)C=C2C(C)C)cc1Cl [Example 214] | 169 nM | 100 nM | – | – |
| CC(C)CCS(=O)(=O)c1ccc([C@]2(C)NC(=O)N(CCC(=O)O)C=C2C(C)C)cc1Cl [Example 216] | > 20000 nM | > 20000 nM | (86%) | (76%) |
| CC(C)CCSc1ccc([C@]2(C)NC(=O)N(CCC(=O)O)C=C2C(C)C)cc1Cl [Example 218] | 376 nM | 122 nM | – | – |
| Cc1cc(C(=O)O)ccc1N1C=C(C(C)C)[C@](C)(c2ccc(CCC(C)(C)C)c(Cl)c2)NC1=O [Example 220] | 22 nM | 29 nM | – | – |
| COc1cc(C(=O)O)ccc1N1C=C(C(C)C)[C@](C)(c2ccc(CCC(C)(C)C)c(Cl)c2)NC1=O [Example 221] | 25 nM | 24 nM | – | – |
| CC(C)C1=CN(CCC(=O)O)C(=O)N[C@@]1(C)c1ccc(SC2CCCC2)c(Cl)c1 [Example 224] | 343 nM | 123 nM | – | – |
| CC(C)(C)CCc1ccc([C@]2(C)NC(=O)N(C3CC(F)(F)C3)C=C2[C@H]2C[C@@H](C(=O)O)C2)cc1Cl [Example 229] | 9 nM | 18 nM | – | – |
| CC(C)(C)CCc1ccc([C@]2(C)NC(=O)N(c3ccncc3)C=C2CCC(=O)O)cc1Cl [Example 231] | 692 nM | 458 nM | – | – |
| CC(C)C1=CN([C@@H]2CCC[C@@H]2C(=O)O)C(=O)N[C@@]1(C)c1ccc(CCC(C)(C)C)c(Cl)c1 [Example 234] | 964 nM | 534 nM | – | – |
| CC(C)C1=CN([C@H](C)CC(=O)O)C(=O)N[C@@]1(C)c1ccc(CCC(C)(C)C)c(Cl)c1 [Example 236] | 20 nM | 15 nM | – | – |
| CC(C)(C)CCc1ccc([C@]2(C)NC(=O)N(CCC(=O)O)C=C2[C@H]2C[C@@H](CO)C2)cc1Cl [Example 241] | 112 nM | 247 nM | – | – |

| SMILES | EC50 (human RORγ) | EC50 (mouse RORγ) | hRORγ luciferase activity, %-of-control (human RORγ) | mRORγ luciferase activity, %-of-control (mouse RORγ) |
| --- | --- | --- | --- | --- |
| CC(C)(C)CCc1ccc([C@]2(C)NC(=O)N(C3CCC(F)(F)CC3)C=C2[C@H]2C[C@@H](C(=O)O)C2)cc1Cl [Example 246] | 10 nM | 22 nM | – | – |
| CC(C)C1=CN([C@@H](C)CC(=O)O)C(=O)N[C@@]1(C)c1ccc(CCC(C)(C)C)c(Cl)c1 [Example 247] | 18 nM | 16 nM | – | – |
| CC(C)(C)CCc1ccc([C@]2(C)NC(=O)N(CCC(N)=O)C=C2[C@H]2C[C@@H](C(=O)O)C2)cc1Cl [Example 249] | 412 nM | 779 nM | – | – |
| COCC1(N2C=C([C@H]3C[C@@H](C(=O)O)C3)[C@](C)(c3ccc(CCC(C)(C)C)c(Cl)c3)NC2=O)CC1 [Example 250] | 42 nM | 114 nM | – | – |
| CC(C)(C)CCc1ccc([C@]2(C)NC(=O)N(C3CC(C)(C)C3)C=C2[C@H]2C[C@@H](C(=O)O)C2)cc1Cl [Example 251] | 13 nM | 28 nM | – | – |
| CC(C)(C)CCc1ccc([C@]2(C)NC(=O)N(c3ccc(C(=O)O)cc3)C=C2C2CC(F)(F)C2)cc1Cl [Example 252] | 20 nM | 28 nM | – | – |
| CC(C)C1=CN(CCC(=O)O)C(=O)N[C@@]1(C)c1ccc(CCC(C)(C)C)cc1 [Example 253] | 75 nM | 34 nM | – | – |
| CC(C)C1=CN(C(C)(C)CC(=O)O)C(=O)N[C@@]1(C)c1ccc(CCC(C)(C)C)c(Cl)c1 [Example 259] | 57 nM | 43 nM | – | – |
| CC(C)C1=CN(CCC(=O)O)C(=O)N[C@@]1(C)c1ccc(CCC(C)(C)CO)c(Cl)c1 [Example 260] | 439 nM | 492 nM | – | – |
| CC(C)C1=CN(CCC(=O)O)C(=O)N[C@@]1(C)c1ccc(CCC(C)(C)C(=O)O)c(Cl)c1 [Example 261] | > 20000 nM | > 20000 nM | (90%) | (100%) |
| CC(C)C1=CN([C@H]2CC[C@H](CC(=O)O)CC2)C(=O)N[C@@]1(C)c1ccc(CCC(C)(C)C)c(Cl)c1 [Example 262] | 22 nM | 22 nM | – | – |
| CC(C)C1=CN(CCC(=O)O)C(=O)N[C@@]1(C)c1ccc(CC2CCCC2)c(Cl)c1 [Example 263] | 26 nM | 18 nM | – | – |
| CC(C)(C)CCc1ccc([C@]2(C)NC(=O)N(CCC(=O)O)C=C2c2ccccc2)cc1Cl [Example 265] | 37 nM | 71 nM | – | – |
| Cc1cc(N2C=C(C(C)C)[C@](C)(c3ccc(CCC(C)(C)C)c(Cl)c3)NC2=O)ccc1C(=O)O [Example 266] | 12 nM | 17 nM | – | – |
| CC(C)C1=CN(CCC(=O)O)C(=O)N[C@@]1(C)c1ccc(C=C2CCCCC2)c(Cl)c1 [Example 267] | 30 nM | 33 nM | – | – |
